Data taken from the SangsterLogP compilation.

SMILES	logP
Cn1cnc([N+](=O)[O-])c1Sc1nc(=O)[nH]c2ncn(C)c12	1.12
Cn1cnc([N+](=O)[O-])c1Sc1nc2ncn(C)c2c(=S)[nH]1	1.26
Cn1cnc([N+](=O)[O-])c1Sc1nc(=S)[nH]c2ncn(C)c12	1.19
CN1C=NC([N+](=O)[O-])C1Sc1nc2ncn(C)c2c(=O)[nH]1 (configuration not stated)	1.21
COc1nc(Sc2c([N+](=O)[O-])ncn2C)c2c(ncn2C)n1	1.45
C=CCOc1nc(Sc2c([N+](=O)[O-])ncn2C)c2c(ncn2C)n1	2.02
Cn1cnc([N+](=O)[O-])c1Sc1nc(Sc2c([N+](=O)[O-])ncn2C)c2c(ncn2C)n1	1.68

Next, values leading:

logP	SMILES
1.6	CSc1nc(Sc2c([N+](=O)[O-])ncn2C)c2c(ncn2C)n1
2.67	Cn1cnc([N+](=O)[O-])c1Sc1nc(OCc2ccccc2)nc2ncn(C)c12
1.5	Cn1cnc([N+](=O)[O-])c1Sc1nc(Cl)nc2ncn(C)c12
2.43	C=CCSc1nc(Sc2c([N+](=O)[O-])ncn2C)c2c(ncn2C)n1
2.91	Cn1cnc([N+](=O)[O-])c1Sc1nc(SCc2ccccc2)nc2ncn(C)c12
